{
  "source": "the METLIN SMRT retention time set (Domingo-Almenara et al. 2019)",
  "data": [
    {"assay": "gradient 5% acetonitrile 3 min, to 50% in 2 min, to 85% in 15 min, held 3 min, 100 µL/min", "conditions": "column: Zorbax Extend-C18 2.1 x 50 mm; eluents: water / acetonitrile, 0.1% formic acid", "method_in_brief": "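Retention times of pure standards were taken from adduct peaks that were selected by computer and manually inspected. Over 3 months, mixtures of ~100 molecules were run by HPLC–quadrupole time-of-flight mass spectrometry in positive and negative ionization mode. The Zorbax Extend-C18 column (2.1 × 50 mm, 1.8 μm) ran at 100 μL/min in water and acetonitrile, each containing 0.1% formic acid, with 40 μL dead volume and 900 μL dwell volume.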", "units": {"RP-LC retention time": "s"}, "values": [
      {"smiles": "Cc1ccn2cc(CC(=O)Nc3ccc(F)cc3)nc2c1", "RP-LC retention time": 595},
      {"smiles": "Cc1ccc(NC(=O)Cn2nc3c(Oc4ccc(F)cc4)nccn3c2=O)cc1", "RP-LC retention time": 859},
      {"smiles": "Cc1nnc(N2CCCC(C(=O)NCc3ccccc3F)C2)c2nn(-c3ccc(Cl)cc3)c(C)c12", "note": "(centres undefined)", "RP-LC retention time": 771},
      {"smiles": "CCCN(C)C(=O)c1cc2c(s1)N(CC1CC1)CCCC2", "RP-LC retention time": 1160},
      {"smiles": "O=C1NCCCn2cc(S(=O)(=O)Nc3ccccc3)cc21", "RP-LC retention time": 630},
      {"smiles": "COC(=O)c1c(C)[nH]c(C(=O)N2CCC(CC(=O)NCc3ccc(F)cc3)CC2)c1C", "RP-LC retention time": 727},
      {"smiles": "CCc1ccc(-c2cc3c(=O)n(Cc4noc(CN5CCCC5)n4)ccn3n2)cc1", "RP-LC retention time": 694},
      {"smiles": "O=C(C1CCN(c2cncnc2N2CCCCC2)CC1)N1CCCC1", "RP-LC retention time": 554},
      {"smiles": "CCc1cc(C2CCCN2C(=O)NCCc2ccccc2)on1", "note": "(centres undefined)", "RP-LC retention time": 789},
      {"smiles": "COCCCNC(=O)C1CCN(Cc2cc3ccccc3n2Cc2ccccc2C)CC1", "RP-LC retention time": 718},
      {"smiles": "O=C(O)/C(=C/c1ccccc1)c1ccccc1", "RP-LC retention time": 923},
      {"smiles": "Cc1ccc(S(=O)(=O)N2C[C@@H](F)C[C@H]2C(=O)N2CCCCC2)cc1C", "RP-LC retention time": 823},
      {"smiles": "COCn1c(-c2ccc(OC)c(OC)c2)nc2ccccc21", "RP-LC retention time": 573},
      {"smiles": "COc1cc(OC)c(NC(=O)Cc2nnc(-c3ccc4ncccc4c3)o2)cc1Cl", "RP-LC retention time": 936},
      {"smiles": "Cc1oc2ncnc(N3CCCCC3)c2c1C(=O)N1CCN(c2ccccn2)CC1", "RP-LC retention time": 591},
      {"smiles": "O=C(NC1CCN(c2nnc3ccc(Cl)cn23)CC1)c1ccco1", "RP-LC retention time": 606},
      {"smiles": "COc1cccc(CNC(=O)c2nnc(-c3ccc(S(=O)(=O)N4CCOCC4)cc3)o2)c1", "RP-LC retention time": 822},
      {"smiles": "CCc1ccc(NC(=O)NCCn2c(-c3ccncc3)nc3cccnc32)cc1", "RP-LC retention time": 623},
      {"smiles": "CS(=O)(=O)Nc1cccc(NC(=O)C2CCN(CC(=O)Nc3ccc(F)cc3)CC2)c1", "RP-LC retention time": 564},
      {"smiles": "CCCN1CCN(C(=O)CCCn2c3ccccc3c3cnn(C)c(=O)c32)CC1", "RP-LC retention time": 600},
      {"smiles": "COc1ccc(OC)c(NC(=O)C2CCN(S(=O)(=O)c3c(C)nn(-c4ccccc4)c3C)CC2)c1", "RP-LC retention time": 974},
      {"smiles": "COCC(=O)N1CCC(Oc2nccnc2N2CCc3ccccc32)C1", "note": "(centres undefined)", "RP-LC retention time": 779},
      {"smiles": "CCN1CCN(S(=O)(=O)c2cc(-c3nnc(C4CCCC4)o3)co2)CC1", "RP-LC retention time": 637},
      {"smiles": "CCOCC(=O)N1CCCn2cc(-c3ccccc3)nc21", "RP-LC retention time": 621},
      {"smiles": "O=C(Cn1cnc(-c2noc(-c3ccc(F)cc3)n2)c1)NCc1ccc(Cl)cc1", "RP-LC retention time": 917},
      {"smiles": "Cc1cccc(CCNC(=S)Nc2ccc3nc(N4CCN(C)CC4)cc(C)c3c2)c1", "RP-LC retention time": 618},
      {"smiles": "O=C(NC1CCCCCC1)c1cccc(-c2nccnc2N2CCCC2)c1", "RP-LC retention time": 1000},
      {"smiles": "CC(C)NC(=O)N1C[C@@H]2CCCN3CCC[C@@H]([C@H]23)[C@H]1CCCC(=O)NCC1CC1", "RP-LC retention time": 578},
      {"smiles": "CC(C)c1cnc2c(c1SCc1ccccn1)c(=O)n(C)c(=O)n2C", "RP-LC retention time": 737},
      {"smiles": "CC1(C)C(=O)N2c3ccccc3C3(CC(N4C(=O)c5ccccc5C4=O)C(=O)O3)C2N1C(=O)OCc1ccccc1", "note": "(centres undefined)", "RP-LC retention time": 1170},
      {"smiles": "CCc1ccc(S(=O)(=O)N2CCc3c(c(-c4nnc(-c5ccccc5)o4)nn3C)C2)cc1", "RP-LC retention time": 1030},
      {"smiles": "O=C(Nc1cccc2cccnc12)c1ccc(N2C(=O)[C@@H]3[C@H](C2=O)[C@@H]2C=C[C@H]3C2)cc1", "RP-LC retention time": 941},
      {"smiles": "Cc1cc(C)n(CCC(=O)N2CC(Oc3ccc(-c4nc(-c5ccccc5)no4)cc3)C2)n1", "RP-LC retention time": 1020},
      {"smiles": "Clc1cccc(-c2nnc(-c3nc(NCc4ccco4)c4ccccc4n3)o2)c1", "RP-LC retention time": 1050},
      {"smiles": "CC1CCC(NC(=O)C2CCCN(c3cn[nH]c(=O)c3)C2)CC1", "note": "(centres undefined)", "RP-LC retention time": 680},
      {"smiles": "O=C(CN1C(=O)C2CCCCN2c2ccc(S(=O)(=O)N3CCCC3)cc21)NC1CC1", "note": "(centres undefined)", "RP-LC retention time": 770},
      {"smiles": "CC(C)c1cccc(NC(=O)c2cn(C)nc2S(=O)(=O)N2CCSCC2)c1", "RP-LC retention time": 1090},
      {"smiles": "CCOC(=O)c1sc(NC(=O)C2CCCCN2S(=O)(=O)c2cccs2)cc1C", "note": "(centres undefined)", "RP-LC retention time": 962},
      {"smiles": "Cc1oc2ccn(Cc3ccccc3F)c(=O)c2c1C(=O)NCc1cc(F)cc(F)c1", "RP-LC retention time": 827},
      {"smiles": "CCN1CCN(c2ccc(-c3ccc(C)c(S(=O)(=O)N4CCOCC4)c3)nn2)CC1", "RP-LC retention time": 612},
      {"smiles": "COc1ccc(C(=O)Nc2cc(-c3ccccn3)no2)cc1", "RP-LC retention time": 784},
      {"smiles": "CCN1C(=O)COc2ccc(-c3noc(CNC(=O)Cc4ccc(Cl)cc4)n3)cc21", "RP-LC retention time": 859},
      {"smiles": "CCc1oc2cc(S(=O)(=O)Nc3ccc(S(=O)(=O)Nc4nccs4)cc3)ccc2c1C(=O)c1cc(Br)c(O)c(Br)c1", "RP-LC retention time": 895},
      {"smiles": "CCOC(=O)CCCn1nc(C)c2c(C)n(-c3ccccc3)nc2c1=O", "RP-LC retention time": 829},
      {"smiles": "Cc1[nH]c(C)c(S(=O)(=O)N2CCC(C(=O)Nc3ccc(Cl)cc3)CC2)c1C(=O)N1CCCC1", "RP-LC retention time": 788},
      {"smiles": "O=C(CSc1nnc2c3cc(-c4ccccc4)nn3ccn12)Nc1cccc(C(F)(F)F)c1", "RP-LC retention time": 969},
      {"smiles": "Cc1noc(C)c1CN1CCC(NC(=O)Cc2ccc(F)cc2)CC1", "RP-LC retention time": 582},
      {"smiles": "CN(Cc1cc(Cl)ccc1F)C1CCc2nnc(C3CCOCC3)n2CC1", "note": "(centres undefined)", "RP-LC retention time": 592},
      {"smiles": "O=C(Nc1ccc2c(c1)OCCO2)N1C[C@@H]2C[C@H]1C[C@@H]2NS(=O)(=O)c1ccccc1", "RP-LC retention time": 678},
      {"smiles": "Cc1ccc(N2CCN(CC(O)COc3ccc([N+](=O)[O-])cc3)CC2)cc1", "note": "(centres undefined)", "RP-LC retention time": 601},
      {"smiles": "COc1ccc(Cl)cc1N1CC(c2nc(-c3cccs3)no2)CC1=O", "note": "(centres undefined)", "RP-LC retention time": 930},
      {"smiles": "Cn1cnc(S(=O)(=O)N2CCC(C(=O)NCc3ccc(Cl)cc3)CC2)c1", "RP-LC retention time": 702},
      {"smiles": "Cc1cc(C(=O)N2CCCCCC2c2nnc(C)o2)no1", "note": "(centres undefined)", "RP-LC retention time": 698},
      {"smiles": "FC(F)(F)c1cnc(N2CCN(c3ccccc3)CC2)c(Cl)c1", "RP-LC retention time": 1390},
      {"smiles": "CCOc1ccc(NC(=O)c2oc3cc(C)c(Cl)cc3c2C)c2cccnc12", "RP-LC retention time": 893},
      {"smiles": "COc1ccc(S(=O)(=O)N2CCCC(C(=O)Nc3c(F)cccc3F)C2)cc1OC", "note": "(centres undefined)", "RP-LC retention time": 818},
      {"smiles": "Cc1noc(C)c1CN1CCN(C(=O)c2cc(F)cc(F)c2)CC1", "RP-LC retention time": 563},
      {"smiles": "Cc1ccc(Oc2cccc(C(=O)Nc3ccc(-c4cn5ccccc5n4)cc3)c2)nn1", "RP-LC retention time": 568},
      {"smiles": "CCN(c1cccc(C)c1)S(=O)(=O)c1cc2n(c1)CCCN(C)C2=O", "RP-LC retention time": 783},
      {"smiles": "Cc1ccn2c(NC(=O)c3cccc([N+](=O)[O-])c3)c(-c3ccc(F)cc3)nc2c1", "RP-LC retention time": 863},
      {"smiles": "COc1ccc(CC(=O)NC(C)C(=O)Nc2nc3ccccc3[nH]2)cc1Cl", "note": "(centres undefined)", "RP-LC retention time": 671},
      {"smiles": "O=C(Nc1ccc(F)c(Cl)c1)N1CCN(CCn2c(-c3ccncc3)nc3cccnc32)CC1", "RP-LC retention time": 627},
      {"smiles": "COc1ccc(-c2nnc(-c3ccc(C)c(S(=O)(=O)N4CCC(C)CC4)c3)o2)cc1OC", "RP-LC retention time": 1150},
      {"smiles": "CSc1cccc(NC(=O)Nc2cccc(-c3ccc(N4CCOCC4)nn3)c2)c1", "RP-LC retention time": 742}
    ]}
  ]
}
